Measurements from US20160051493A1, “METHODS OF TREATMENT OF KERATINOCYTE-DERIVED LESIONS” (THE TRUSTEES OF COLUMBIA UNIVERSITY IN THE CITY OF NEW YORK, priority 2012, published 2016).
“Also recorded” adds a separate entry of the source. Read-outs that look alike come from different tables or passages of the source.

What was measured:
[1] = test system: normal human epidermal keratinocytes; experiment: Ratiometric fura-2 live-cell calcium imaging of keratinocytes; type: cell-based; conditions: for % Responders (undifferentiated) Mean ± SEM or SD: growth conditions, saturating agonist (4αPDD 3 μM, camphor 10 mM, 2-APB 100 μM, capsaicin 1 μM, mustard oil 300 μM), SD for capsaicin and mustard oil; for cytoplasmic Ca2+ signals in undifferentiated keratinocytes: 0.15%, within 1 minute of perfusion, versus vehicle
Method: (§1) Normal human keratinocytes were isolated from human foreskins by undergoing two enzymatic dissociation steps, first in dispase then in trypsin. Cells were cultured in EpiLife supplemented with human keratinocyte growth supplement (HKGS; Invitrogen). For all experiments with undifferentiated cells, keratinocytes were harvested or images at ˜75% confluency. Differentiation was induced by adding CaCl2 to the EpiLife media to reach a final [Ca2+] of 1.2 mM. Cells were typically cultured for 3 days under differentiation conditions before they were assayed. Keratinocytes were cultured for <5 passages. Purified Camphor (CAS #76-22-2), 2-APB (Tocris) or vehicle (1% EtOH)-containing media were used as indicated.
Human keratinocytes and SCC cells were washed in Ringer's solution (in mM: NaCl 140, KCl 5, D-glucose 10, HEPES 10, CaCl2 2, MgCl2 2, pH 7.2) and loaded with 5 μM fura-2AM and 1 μM pluronic (Invitrogen) for 30 minutes in the dark. During live-cell imaging, saturating concentrations of TRP agonists (10 mM Camphor, 100 μM 2-APB 1 μM Capsaicin, 300 μM Mustard oil or 3 μM 4αPDD) in Ringer's were used. Cells were imaged for 20 s to establish a baseline and then acutely treated with each agonist for 60 seconds. Imaging was performed on an Olympus IX81 microscope with a 20× (NA 0.17) objective and a Hamamatsu ORCA-R2 camera. 340- and 380-nm excitation and 540-nm emission filters were used to capture fura-2 fluorescence. Data are expressed as a ratio of fluorescent signals (340/380). All data acquisition was performed in MetaFluor. Data analysis was performed with custom algorithms in IgorPro. Cells with baseline levels ±2 SD above the mean were excluded from analysis as unhealthy. Responders were designated as cells whose 340/380 ratio was ≧20% above baseline.
TRP channels are selectively activated by endogenous and exogenous ligands at micromolar to millimolar concentrations. Since TRP channel activity increases over this range to allow graded Ca^2+ influx, receptor activity levels can be monitored by live-cell Ca^2+ imaging. A ratiometric calcium indicator (Fura-2) was employed to determine whether a panel of TRP-channel agonists elicited cytoplasmic calcium increases in human epidermal keratinocytes. (FIG. 1A-1E, FIG. 2A-2B, and Table 3).
Normal human keratinocytes were cultured in low-calcium media to promote proliferation or in 1.2-mM calcium media to induce differentiation. For live-cell imaging, keratinocytes were then washed and bathed in Ringer's solution containing 2 mM calcium so that calcium signals could be directly compared between cell populations.
In keratinocytes, increased intracellular calcium stimulates the terminal differentiation process. To determine whether camphor oil and its abundant constituents are directly bioactive on epithelial keratinocytes, a ratiometric Ca2+ indictor (Fura-2) was employed to test whether a panel of terpenes elicited cytoplasmic Ca2+ increases in undifferentiated human epidermal keratinocytes (FIG. 19A-19C). Keratinocytes were cultured according to our standard methods. For live-cell imaging, keratinocytes were bathed in Ringer's solution containing 2 mM Ca2+.

[2] = 0.5 to 5 percent ointment or liquid, once or twice a day for two to four weeks; cited from earlier work
[3] = test system: normal human keratinocytes; experiment: Keratinocyte cell counts (DAPI), morphology and EdU proliferation assay after 24 h treatment; conditions: in the presence of camphor
Method: as §1
Cells were treated with 2-APB or camphor for 24 hours at 37° C., exposed to EdU for 45 min, fixed and stained with DAPI for cell counting. EdU Click-It assays (Invitrogen) were used to assess cell-cycle entry. The cells were then fixed and stained with DAPI. Three fields per well were assayed via a 20× objective and there were 4 wells per treatment in each experiment. EdU=5-ethynyl-2′-deoxyuridine.
As Ca^2+ triggers the commitment switch from proliferation to differentiation in keratinocytes, it was reasoned that increasing intracellular calcium by incubating keratinocytes in TRP agonists might be sufficient to induce this cell-fate switch in low-calcium growth media. To test this hypothesis, normal human keratinocytes were cultured for 24 hours under low-Ca^2+ conditions in the presence of low (12.5 μM), half-maximal (50 μM) and saturating (100 μM) concentrations of 2-APB (FIG. 3A) or camphor (0-8 mM) (FIG. 3E). These TRP agonists were chosen because they reliably elicited intracellular calcium signaling in normal human keratinocytes (FIG. 1A-1E).
As camphor can activate both TRPV3 and TRPV1 channels, these experiments were repeated in the presence of a specific TRPV1 antagonist, AMG-9810 (Gavva et al., 2005).

TRPV3 = conditions: reported in literature; cited from earlier work
skin tumors = conditions: mouse, in vivo; cited from earlier work
[4] = test system: precancerous lesions and SCCs; type: in vivo; conditions: 20% wt/wt in acetone, topical once daily, five weeks
normal keratinocytes = experiment: In vivo keratinocyte proliferation (EdU, flow cytometry) in healthy mouse skin; parameters: species or system mice; conditions: 20% topical, five consecutive days
Method: Age matched FVB (female mice purchased from Jackson labs) aged 6-8 weeks were shave on their dorsal sides. Mice were then treated for five consecutive days with vehicle, 20% camphor white oil, 20% eucalyptol, 20% α-pinene, 20% dipentene, or 20% γ-terpinene (2-6 mice per group). Mice were then injected with EdU and sacrificed one hour later. The epidermis was isolated and stained for Itgα6, Sca1+, and EDU. Itgα6+Sca1+EdU+ cells were then identified on a flow cytometer.
To test whether effects of camphor white oil on normal keratinocytes are TrpV3 dependent proliferation in TrpV3 mutant and wild type mice treated with camphor oil was analyzed. TrpV3 mutant and wild type mice aged 6-8 weeks were shaved on their dorsal sides. Mice were then treated for five consecutive days with vehicle or 20% camphor oil (4-5 mice per group). Mice were then injected with EdU (5-ethynyl-2′-deoxyuridine) and sacrificed one hour later. The epidermis was isolated and stained for Itga6, Sca1, and EdU. Itga6+Sca1+EdU+ cells were then identified on a flow cytometer to identify cells in the intrafollicular epidermis that are actively proliferating.

[5] = responders F340:F380 increase ≧20%

Question: With `CCCCCCCCCC(=O)O[C@@H]1[C@@H](C)[C@@]2(O)[C@@H](C=C(CO)C[C@@]3(O)C(=O)C(C)=C[C@@H]23)[C@@H]2C(C)(C)[C@]12OC(=O)CCCCCCCCC` [4αPDD, 4α-phorbol-12,13 didecanoate, reference compound] as the compound, how does the “% Responders (differentiated) Mean ± SEM” value ([1]; differentiated in 1.2 mM Ca2+, responders F340:F380 increase ≧20%, 4αPDD 3 μM, camphor 10 mM, 2-APB 100 μM) read?
Answer: 70.8 ± 11.1%

Question: What about the “% Responders (undifferentiated) Mean ± SEM or SD” value [1, 5] of the same compound?
Answer: 84.8 ± 1.6%

Question: And the “keratinocytes with robust increases in intracellular Ca2+” value ([1]; growth or differentiation conditions)?
Answer: > 70%

Question: Which cure rates [2] does the source give for `O=c1[nH]cc(F)c(=O)[nH]1` [5-fluorouracil] here?
Answer: up to 93%

Question: Which “effect of TRPV1 inhibition on camphor's effects on keratinocyte proliferation” value [3] does the source give for `CC(C)(C)c1ccc(/C=C/C(=O)Nc2ccc3c(c2)OCCO3)cc1` [AMG-9810, (E)-3-(4-t-butylphenyl)-N-(2,3-dihydrobenzo[b][1,4]dioxin-6-yl)acrylamide, reference compound] here?
Answer: did not alter

Question: For `CC1(C)C2CCC1(C)C(O)C2` (centres unmarked) [Borneol, reference compound], which “effectiveness as a TRPV3 agonist relative to camphor” value (TRPV3) is on record?
Answer: more effective than camphor

Question: For `COc1cc(CNC(=O)CCCC/C=C/C(C)C)ccc1O` [Capsaicin, reference compound], which “% Responders (undifferentiated) Mean ± SEM or SD” value [1, 5] is on record?
Answer: 2.3+/−2.6%

Question: For `CC1(C)C2CCC1(CS(=O)(=O)O)C(=O)C2=Cc1ccc(C=C2C(=O)C3(CS(=O)(=O)O)CCC2C3(C)C)cc1` [Ecamsule, Terephthalylidene Dicamphor Sulfonic Acid], which “Results of safety: against skin tumors in mice” value (skin tumors) is on record?
Answer: Protects

Question: With `C=CCN=C=S` [Mustard oil, reference compound] as the compound, how does the “% Responders (undifferentiated) Mean ± SEM or SD” value [1, 5] read?
Answer: 0.6 ± 1.2%^

Question: And the “% Responders (undifferentiated) Mean ± SEM or SD” value ([1]; responders F340:F380 increase ≧20%, listed as Mustard Oil)?
Answer: 0.6+/−1.2%

Question: And the “% Responders (undifferentiated) Mean ± SEM or SD” value ([1]; responders F340:F380 increase ≧20%, listed as mustard oil)?
Answer: 0.6+/−1.2%

Question: Which results are given for `C=C(C)[C@H]1CC=C(C)CC1` [dipentene, Dipentene]?
Answer: premalignant tumors per mouse versus vehicle [4]: antitumor effects; premalignant tumors per mouse versus vehicle ([4]; listed as Dipentene): most striking tumor reductions; keratinocyte proliferation (Itgα6+Sca1+EdU+ cells) compared with vehicle (normal keratinocytes): significant increases

Question: With `CC12CCC(CC1)C(C)(C)O2` [eucalyptol, Eucalyptol] as the compound, how does the “cytoplasmic Ca2+ signals in undifferentiated keratinocytes” value [1] read?
Answer: no effects

Question: What about the “keratinocyte proliferation (Itgα6+Sca1+EdU+ cells) compared with vehicle” value (normal keratinocytes) of the same compound?
Answer: significant increases

Question: What does the source list for `CC1=CCC2CC1C2(C)C` (stereo not drawn) [α-pinene, α-Pinene]?
Answer: cytoplasmic Ca2+ signals in undifferentiated keratinocytes [1]: stimulated detectable calcium signals; also recorded: induced calcium increases; premalignant tumors per mouse versus vehicle [4]: antitumor effects; also recorded: most striking tumor reductions; keratinocyte proliferation (Itgα6+Sca1+EdU+ cells) compared with vehicle (normal keratinocytes): significant increases

Question: With `CC1=CCC(C(C)C)=CC1` [γ-terpinene, γ-Terpinene] as the compound, how does the “keratinocyte proliferation (Itgα6+Sca1+EdU+ cells) compared with vehicle” value (normal keratinocytes) read?
Answer: significant increases
